Reference: US20080311657A1, “Killing Human Lymphoma and Leukemia Cancer Cells and Tcr-Activated Normal Human Cells By Dopamine D1r Agonists” (priority 2005, published 2008)

Legend:
[1] = system: Human chronic myelogenous leukemia cells (CML) (K-562); assay: Number of living cells counted by flow cytometry (FACSort) after D1R agonist; type: cell-based; details: for % of the cells killed: living cells counted 3 days later
Method: (§1) Human chronic myelogenous leukemia cells (CML) (K-562) were seeded in 96 well plates (0.5 ml per well of 0.5 million cells/ml) and A 77636 hydrochloride was added and diluted 1:00 into the wells at starting concentrations of 10^−1M-10^−4M, so that the final concentration range tested was 10^−3M-10^−6M. Afterwards, the microtiter plates were placed in an incubator (37° C., humidified incubator, 5% CO2) for 3 days. Then, the number of living cells was evaluated by flow cytometry (the cells were counted by FACsort for a fixed time length of 1 min, in which 100 microliter of each sample was tested).
as §1, with “68930” for “77636”
as §1, with “SKF 38393 hydrobromide” for “A 77636 hydrochloride”
Human chronic myelogenous leukemia cells (CML) (K-562) were seeded in 96 well plates (0.5 ml per well of 0.5 million cells/ml) and A 77636 hydrochloride was added and diluted 1:00 into the wells, at a fixed starting concentration of 10^−2M, so that the final concentration tested was 10^−4M. The experiment was designed to test the effect of exposing the cells to the D1R agonist for 1 min, 15 min, 1 hr or 72 hr. Thus, 1 min, or 15 min or 1 hr after the addition of the D1R agonist, the corresponding cells were transferred into tubes, centrifuged (1000 rpm for 10 min), and the supernatant was removed. […] Thus, its medium was not replaced, and these cells and remained as such in the incubator for 72 hr. At the end of the 72 hr incubation, the number of living cells was evaluated by flow cytometry (the cells were counted by FACsort for a fixed time length of 1 min, in which 100 microliter of each sample was tested).
(§2) Cell viability was tested afterwards.
For this purpose, the Jurkat T-cell leukemia line, the HuT-78 human T-lymphoma (cutaneous “Sezary” T-lymphoma) line, and the K-562 human Chronic-Myeloid Leukemia (CML) and Daudi Human B-lymphoma (Burkitt's lymphoma) lines were seeded in tissue culture wells (0.5 million cells/0.5 ml/well).
Cell survival/death was evaluated 3 days later by counting the number of living cells, using flow cytometry.
(§3) The effect of dopamine itself (that can of course activate all its D1R-5 receptors) was also tested. All of these molecules were tested at a similar concentration (10^−4 M). […] The specificity and restriction of the effect to the D1R is also seen in Tables 7 and 8.

[2] = system: Human Burkitt's B-lymphoma cells (Daudi); assay: as above; type: cell-based; details: 10^−3M-10^−6M, 3 days
Method: as §1, with “Burkitt's B-lymphoma” for “chronic myelogenous leukemia”, “(Daudi)” for “(CML) (K-562)”, “Afterwards, the microtiter plates were placed in an incubator (37° C., humidified incubator, 5% CO2) for 3 days.” left out
as §1, with “Burkitt's B-lymphoma” for “chronic myelogenous leukemia”, “(Daudi)” for “(CML) (K-562)”, “68930” for “77636”, “Afterwards, the microtiter plates were placed in an incubator (37° C., humidified incubator, 5% CO2) for 3 days.” left out
[…] Then, the number of living cells was evaluated by flow cytometry (the cells were counted by FACsort for a fixed time length of 1 min, in which 100 microliter of each sample was tested).
as §2, §3

In the case of `Cl.NC[C@@H]1O[C@H](C23CC4CC(CC(C4)C2)C3)Cc2c1ccc(O)c2O` [A 77636 hydrochloride, (1R-cis)-1-(aminomethyl)-3,4-dihydro-3-tricyclo[3.3.1.13,7]dec-1-yl-[1H]-2-benzopyran-5,6-diol hydrochloride], the “Cell death by number of living cells (FIGS. 22-24), in words” value ([1]; 10^−3M-10^−6M, 3 days) is reported as “induces marked cell death”, the “% of the cells killed” value ([1]; 10^−4M, exposure 1 minute then washed) is reported as “≈ 48%” and the “% of the cells killed” value ([1]; 10^−4M, exposure 15 minutes then washed) is reported as 60%. For the same molecule, the “% of the cells killed” value ([1]; 10^−4M, exposure 1 hour then washed) was 76%, the “Killing, in words” value ([1]; 10^−4M, incubation 72 hours) was “no additional value beyond the 1-hour effect” and the “Speed of cell death by number of living cells (FIG. 29), in words” value ([1]; 10^−4M, exposure 1 min, 15 min, 1 hr or 72 hr) was “very rapid death”. For the same molecule, the “Cell death by number of living cells (FIGS. 16-18), in words” value [2] was “induces marked cell death”.
